The record followed here is ChEMBL document CHEMBL1909046, “DrugMatrix in vitro pharmacology data”.

The target of the first assay is T1, Alpha-1D adrenergic receptor (Homo sapiens, UniProt P25100). Also: in other assays of this panel Not Active means under 50% inhibition at 10 µM.
T1 sequence (P25100 whole entry): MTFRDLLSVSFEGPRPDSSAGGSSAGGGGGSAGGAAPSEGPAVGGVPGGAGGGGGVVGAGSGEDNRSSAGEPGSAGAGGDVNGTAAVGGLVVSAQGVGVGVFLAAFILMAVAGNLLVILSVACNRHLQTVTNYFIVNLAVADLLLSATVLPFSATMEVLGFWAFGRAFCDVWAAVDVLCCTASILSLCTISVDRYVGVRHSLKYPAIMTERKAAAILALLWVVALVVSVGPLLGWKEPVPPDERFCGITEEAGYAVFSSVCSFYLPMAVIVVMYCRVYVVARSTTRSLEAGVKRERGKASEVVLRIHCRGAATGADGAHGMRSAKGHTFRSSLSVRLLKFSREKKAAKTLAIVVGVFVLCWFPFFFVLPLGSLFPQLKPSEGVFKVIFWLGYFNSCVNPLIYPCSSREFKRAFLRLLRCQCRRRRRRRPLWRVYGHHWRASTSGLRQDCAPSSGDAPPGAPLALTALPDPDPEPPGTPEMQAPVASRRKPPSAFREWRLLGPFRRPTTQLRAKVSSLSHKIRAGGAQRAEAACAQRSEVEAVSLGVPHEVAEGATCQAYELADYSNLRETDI
Format: cell membranes, HEK293, Membrane. The note with it: hek293.
For the molecule `CCN[C@@H]1C[C@H](N)[C@@H](O[C@H]2OC(CN)=CC[C@H]2N)[C@H](O)[C@H]1O[C@H]1OC[C@](C)(O)[C@H](NC)[C@H]1O` [NETILMICIN], the IC50 result is given as “Not Active”.
Take `COC(=O)C1=C(C)NC(C)=C(C(=O)OCC(C)C)C1c1ccccc1[N+](=O)[O-]` (stereo not given) [NISOLDIPINE]: the IC50 entry is “Not Active”.
On the same count and under the same terms, the same measure for `CCOC(=O)C1=C(C)NC(C)=C(C(=O)OC)C1c1cccc([N+](=O)[O-])c1` (stereo not given) [NITRENDIPINE]: “Not Active”.
For `C#C[C@]1(OC(C)=O)CC[C@H]2[C@@H]3CCC4=CC(=O)CC[C@@H]4[C@H]3CC[C@@]21C` [NORETHINDRONE ACETATE], the IC50 entry is “Not Active”.
As for `COc1ccc2[nH]c([S+]([O-])Cc3ncc(C)c(OC)c3C)nc2c1` (stereo not given) [OMEPRAZOLE], the IC50 result is reported as “Not Active”.

The target of the next assay is Beta-2 adrenergic receptor (Homo sapiens, UniProt P07550). Nature of the assay: DRUGMATRIX: Adrenergic beta2 radioligand binding (ligand: [3H] CGP-12177). It counts as cell membranes, Membrane. The note with it: cho; Not Active = under 50% inhibition at 10 µM.
Chain of Beta-2 adrenergic receptor (P07550 whole entry): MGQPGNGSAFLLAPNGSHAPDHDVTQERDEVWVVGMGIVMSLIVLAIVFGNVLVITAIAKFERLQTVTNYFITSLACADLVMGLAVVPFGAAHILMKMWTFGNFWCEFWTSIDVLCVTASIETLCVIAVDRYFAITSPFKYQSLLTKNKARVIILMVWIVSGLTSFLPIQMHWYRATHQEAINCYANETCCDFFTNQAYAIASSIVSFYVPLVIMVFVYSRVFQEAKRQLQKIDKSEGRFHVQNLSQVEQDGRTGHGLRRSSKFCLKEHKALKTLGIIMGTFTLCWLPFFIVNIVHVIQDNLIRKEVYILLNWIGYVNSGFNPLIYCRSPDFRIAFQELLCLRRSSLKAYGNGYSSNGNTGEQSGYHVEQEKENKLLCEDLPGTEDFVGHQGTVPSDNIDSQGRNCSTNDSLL
For the molecule `CCN[C@@H]1C[C@H](N)[C@@H](O[C@H]2OC(CN)=CC[C@H]2N)[C@H](O)[C@H]1O[C@H]1OC[C@](C)(O)[C@H](NC)[C@H]1O` [NETILMICIN], the IC50 entry is “Not Active”.
On the same count and under the same terms, under `COC(=O)C1=C(C)NC(C)=C(C(=O)OCC(C)C)C1c1ccccc1[N+](=O)[O-]` (stereo not given) [NISOLDIPINE] stands “Not Active”.
The same measure, in the same setting: under `CCOC(=O)C1=C(C)NC(C)=C(C(=O)OC)C1c1cccc([N+](=O)[O-])c1` (stereo not given) [NITRENDIPINE] stands “Not Active”.
Turning to `C#C[C@]1(OC(C)=O)CC[C@H]2[C@@H]3CCC4=CC(=O)CC[C@@H]4[C@H]3CC[C@@]21C` [NORETHINDRONE ACETATE], the IC50 entry is on record as “Not Active”.
For the molecule `COc1ccc2[nH]c([S+]([O-])Cc3ncc(C)c(OC)c3C)nc2c1` (stereo not given) [OMEPRAZOLE], the IC50 entry is listed as “Not Active”.

A further assay deals with Beta-3 adrenergic receptor (Homo sapiens, UniProt P13945). Nature of the assay: DRUGMATRIX: Adrenergic beta3 radioligand binding (ligand: [125I] Cyanopindolol). It counts as cell membranes, Membrane. As to conditions: hek293; Not Active = under 50% inhibition at 10 µM.
Chain of Beta-3 adrenergic receptor (P13945 whole entry): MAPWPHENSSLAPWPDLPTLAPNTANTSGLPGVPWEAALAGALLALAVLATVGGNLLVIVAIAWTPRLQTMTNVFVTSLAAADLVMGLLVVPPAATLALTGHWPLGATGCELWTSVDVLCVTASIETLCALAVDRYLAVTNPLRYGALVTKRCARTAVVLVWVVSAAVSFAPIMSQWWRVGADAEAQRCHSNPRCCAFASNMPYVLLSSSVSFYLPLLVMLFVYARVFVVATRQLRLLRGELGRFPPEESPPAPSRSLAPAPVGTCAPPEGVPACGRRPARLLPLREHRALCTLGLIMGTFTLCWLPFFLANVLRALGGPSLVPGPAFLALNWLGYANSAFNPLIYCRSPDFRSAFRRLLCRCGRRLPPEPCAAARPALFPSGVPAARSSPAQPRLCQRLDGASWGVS
As for `CCN[C@@H]1C[C@H](N)[C@@H](O[C@H]2OC(CN)=CC[C@H]2N)[C@H](O)[C@H]1O[C@H]1OC[C@](C)(O)[C@H](NC)[C@H]1O` [NETILMICIN], the IC50 entry was “Not Active”.
Same read-out and setting: under `COC(=O)C1=C(C)NC(C)=C(C(=O)OCC(C)C)C1c1ccccc1[N+](=O)[O-]` (stereo not given) [NISOLDIPINE] stands “Not Active”.
The same measure, in the same setting: the same measure for `CCOC(=O)C1=C(C)NC(C)=C(C(=O)OC)C1c1cccc([N+](=O)[O-])c1` (stereo not given) [NITRENDIPINE]: “Not Active”; for `C#C[C@]1(OC(C)=O)CC[C@H]2[C@@H]3CCC4=CC(=O)CC[C@@H]4[C@H]3CC[C@@]21C` [NORETHINDRONE ACETATE]: “Not Active”.
Same read-out and setting: under `COc1ccc2[nH]c([S+]([O-])Cc3ncc(C)c(OC)c3C)nc2c1` (stereo not given) [OMEPRAZOLE] stands “Not Active”.

For a further assay, the target named is 5-hydroxytryptamine receptor 6 (Homo sapiens, UniProt P50406). Format: cell membranes, HeLa, Membrane. The note with it: hela. Also: in other assays of this panel Not Active means under 50% inhibition at 10 µM.
Chain of 5-hydroxytryptamine receptor 6 (P50406 whole entry): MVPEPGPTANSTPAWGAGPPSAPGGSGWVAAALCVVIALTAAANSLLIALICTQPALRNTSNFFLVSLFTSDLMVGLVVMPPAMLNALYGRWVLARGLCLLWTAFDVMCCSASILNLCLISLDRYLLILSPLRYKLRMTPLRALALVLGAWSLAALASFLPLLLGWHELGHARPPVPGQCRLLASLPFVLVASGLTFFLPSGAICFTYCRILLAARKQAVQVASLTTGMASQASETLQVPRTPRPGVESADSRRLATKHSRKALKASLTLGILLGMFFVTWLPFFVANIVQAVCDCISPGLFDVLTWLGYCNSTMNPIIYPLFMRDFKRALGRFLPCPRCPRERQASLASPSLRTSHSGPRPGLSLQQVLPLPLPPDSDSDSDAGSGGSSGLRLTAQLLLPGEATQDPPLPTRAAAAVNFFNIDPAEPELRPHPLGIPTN
Consider `CCN[C@@H]1C[C@H](N)[C@@H](O[C@H]2OC(CN)=CC[C@H]2N)[C@H](O)[C@H]1O[C@H]1OC[C@](C)(O)[C@H](NC)[C@H]1O` [NETILMICIN], for which the IC50 entry is “Not Active”.
Still for that read-out and setting: under `COC(=O)C1=C(C)NC(C)=C(C(=O)OCC(C)C)C1c1ccccc1[N+](=O)[O-]` (stereo not given) [NISOLDIPINE] stands “Not Active”; under `CCOC(=O)C1=C(C)NC(C)=C(C(=O)OC)C1c1cccc([N+](=O)[O-])c1` (stereo not given) [NITRENDIPINE], “Not Active”; under `C#C[C@]1(OC(C)=O)CC[C@H]2[C@@H]3CCC4=CC(=O)CC[C@@H]4[C@H]3CC[C@@]21C` [NORETHINDRONE ACETATE], “Not Active”.
Same read-out and setting: the same measure for `COc1ccc2[nH]c([S+]([O-])Cc3ncc(C)c(OC)c3C)nc2c1` (stereo not given) [OMEPRAZOLE]: “Not Active”.

The target in another assay is C-C chemokine receptor type 5 (Homo sapiens, UniProt P51681). It counts as cell membranes, HEK293, Membrane. The note with it: hek293. Also: in other assays of this panel Not Active means under 50% inhibition at 10 µM.
Chain of C-C chemokine receptor type 5 (P51681 whole entry): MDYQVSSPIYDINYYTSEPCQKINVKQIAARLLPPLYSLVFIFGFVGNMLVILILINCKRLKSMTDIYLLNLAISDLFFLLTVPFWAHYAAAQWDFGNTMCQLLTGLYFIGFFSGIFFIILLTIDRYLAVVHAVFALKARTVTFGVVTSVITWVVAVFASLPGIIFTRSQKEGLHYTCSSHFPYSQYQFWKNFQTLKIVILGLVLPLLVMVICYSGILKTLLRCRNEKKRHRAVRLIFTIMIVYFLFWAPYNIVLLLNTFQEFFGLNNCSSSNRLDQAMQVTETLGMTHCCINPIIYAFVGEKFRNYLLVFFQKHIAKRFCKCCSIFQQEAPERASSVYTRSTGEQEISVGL
For the molecule `CCN[C@@H]1C[C@H](N)[C@@H](O[C@H]2OC(CN)=CC[C@H]2N)[C@H](O)[C@H]1O[C@H]1OC[C@](C)(O)[C@H](NC)[C@H]1O` [NETILMICIN], the IC50 result was “Not Active”.
Still for that read-out and setting: under `COC(=O)C1=C(C)NC(C)=C(C(=O)OCC(C)C)C1c1ccccc1[N+](=O)[O-]` (stereo not given) [NISOLDIPINE] stands “Not Active”; under `CCOC(=O)C1=C(C)NC(C)=C(C(=O)OC)C1c1cccc([N+](=O)[O-])c1` (stereo not given) [NITRENDIPINE], “Not Active”; under `C#C[C@]1(OC(C)=O)CC[C@H]2[C@@H]3CCC4=CC(=O)CC[C@@H]4[C@H]3CC[C@@]21C` [NORETHINDRONE ACETATE], “Not Active”.
On the same count and under the same terms, the same measure for `COc1ccc2[nH]c([S+]([O-])Cc3ncc(C)c(OC)c3C)nc2c1` (stereo not given) [OMEPRAZOLE]: “Not Active”.

In another assay the target is T2, Muscarinic acetylcholine receptor M5 (Homo sapiens, UniProt P08912). Also: in other assays of this panel Not Active means under 50% inhibition at 10 µM.
T2 sequence (P08912 whole entry): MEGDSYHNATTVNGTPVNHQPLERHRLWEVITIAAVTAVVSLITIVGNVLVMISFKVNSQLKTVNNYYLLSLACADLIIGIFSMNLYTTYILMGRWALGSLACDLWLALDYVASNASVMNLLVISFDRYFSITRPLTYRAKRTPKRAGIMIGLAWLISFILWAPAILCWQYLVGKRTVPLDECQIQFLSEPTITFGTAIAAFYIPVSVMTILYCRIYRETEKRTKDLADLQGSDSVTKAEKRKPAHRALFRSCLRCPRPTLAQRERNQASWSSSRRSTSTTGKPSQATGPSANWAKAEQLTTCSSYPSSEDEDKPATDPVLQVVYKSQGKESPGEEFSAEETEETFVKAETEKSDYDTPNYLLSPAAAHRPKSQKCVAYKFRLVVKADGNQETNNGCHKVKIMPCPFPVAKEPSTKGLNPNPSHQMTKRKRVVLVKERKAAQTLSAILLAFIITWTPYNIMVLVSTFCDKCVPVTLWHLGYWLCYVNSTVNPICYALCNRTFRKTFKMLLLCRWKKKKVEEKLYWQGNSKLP
It counts as cell membranes, CHO-K1, Membrane. As to conditions: cho-k1.
For `CCN[C@@H]1C[C@H](N)[C@@H](O[C@H]2OC(CN)=CC[C@H]2N)[C@H](O)[C@H]1O[C@H]1OC[C@](C)(O)[C@H](NC)[C@H]1O` [NETILMICIN], the IC50 entry was “Not Active”.
With `COC(=O)C1=C(C)NC(C)=C(C(=O)OCC(C)C)C1c1ccccc1[N+](=O)[O-]` (stereo not given) [NISOLDIPINE], the IC50 result is listed as “Not Active”.
The same measure, in the same setting: under `CCOC(=O)C1=C(C)NC(C)=C(C(=O)OC)C1c1cccc([N+](=O)[O-])c1` (stereo not given) [NITRENDIPINE] stands “Not Active”; under `C#C[C@]1(OC(C)=O)CC[C@H]2[C@@H]3CCC4=CC(=O)CC[C@@H]4[C@H]3CC[C@@]21C` [NORETHINDRONE ACETATE], “Not Active”.
Still for that read-out and setting: the same measure for `COc1ccc2[nH]c([S+]([O-])Cc3ncc(C)c(OC)c3C)nc2c1` (stereo not given) [OMEPRAZOLE]: “Not Active”.

The target in a further assay is T3, Nitric oxide synthase, inducible (Mus musculus, UniProt P29477).
T3 sequence (P29477 whole entry): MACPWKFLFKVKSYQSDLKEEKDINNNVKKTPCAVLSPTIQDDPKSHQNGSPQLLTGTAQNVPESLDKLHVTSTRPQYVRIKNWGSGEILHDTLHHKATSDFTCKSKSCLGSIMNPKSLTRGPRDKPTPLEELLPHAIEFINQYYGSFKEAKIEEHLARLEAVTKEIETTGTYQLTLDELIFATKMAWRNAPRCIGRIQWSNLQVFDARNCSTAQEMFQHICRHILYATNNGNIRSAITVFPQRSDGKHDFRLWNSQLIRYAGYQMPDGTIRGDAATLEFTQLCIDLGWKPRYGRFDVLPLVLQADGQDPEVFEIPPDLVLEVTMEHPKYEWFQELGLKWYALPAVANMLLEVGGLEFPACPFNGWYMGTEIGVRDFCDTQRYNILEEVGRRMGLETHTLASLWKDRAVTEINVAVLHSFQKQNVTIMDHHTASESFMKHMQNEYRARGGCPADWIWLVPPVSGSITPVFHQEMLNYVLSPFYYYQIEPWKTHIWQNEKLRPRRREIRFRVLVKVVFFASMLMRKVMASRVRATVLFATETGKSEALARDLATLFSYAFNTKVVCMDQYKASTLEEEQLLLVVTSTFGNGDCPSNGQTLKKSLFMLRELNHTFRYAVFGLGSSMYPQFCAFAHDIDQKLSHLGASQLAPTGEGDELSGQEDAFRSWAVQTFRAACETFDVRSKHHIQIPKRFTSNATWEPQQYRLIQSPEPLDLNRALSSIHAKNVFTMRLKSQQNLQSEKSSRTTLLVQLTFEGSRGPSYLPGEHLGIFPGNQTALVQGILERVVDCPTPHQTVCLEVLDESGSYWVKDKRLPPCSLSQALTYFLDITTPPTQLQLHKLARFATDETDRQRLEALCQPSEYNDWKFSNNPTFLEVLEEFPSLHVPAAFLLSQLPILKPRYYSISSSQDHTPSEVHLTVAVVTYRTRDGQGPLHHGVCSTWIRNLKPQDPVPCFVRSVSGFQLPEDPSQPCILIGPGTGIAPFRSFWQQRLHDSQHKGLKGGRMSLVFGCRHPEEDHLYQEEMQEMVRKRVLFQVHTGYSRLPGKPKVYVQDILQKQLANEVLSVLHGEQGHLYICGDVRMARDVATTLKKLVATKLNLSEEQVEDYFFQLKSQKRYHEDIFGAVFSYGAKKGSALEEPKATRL
Set-up: species or system Escherichia coli.
Details: not given
As for `CCN[C@@H]1C[C@H](N)[C@@H](O[C@H]2OC(CN)=CC[C@H]2N)[C@H](O)[C@H]1O[C@H]1OC[C@](C)(O)[C@H](NC)[C@H]1O` [NETILMICIN], the IC50 result is on record as “Not Active”.
Still for that read-out and setting: under `COC(=O)C1=C(C)NC(C)=C(C(=O)OCC(C)C)C1c1ccccc1[N+](=O)[O-]` (stereo not given) [NISOLDIPINE] stands “Not Active”; under `CCOC(=O)C1=C(C)NC(C)=C(C(=O)OC)C1c1cccc([N+](=O)[O-])c1` (stereo not given) [NITRENDIPINE], “Not Active”; under `C#C[C@]1(OC(C)=O)CC[C@H]2[C@@H]3CCC4=CC(=O)CC[C@@H]4[C@H]3CC[C@@]21C` [NORETHINDRONE ACETATE], “Not Active”.
The same measure, in the same setting: the same measure for `COc1ccc2[nH]c([S+]([O-])Cc3ncc(C)c(OC)c3C)nc2c1` (stereo not given) [OMEPRAZOLE]: “Not Active”.
